# Molecular target: T1, TRPC5 channel (Homo sapiens, UniProt Q9UL62)
# T1 construct: expressed in transfected cells; host or cells: HEK293/TREx (Invitrogen), tetracycline-induced
# T1 sequence (Q9UL62 1-973): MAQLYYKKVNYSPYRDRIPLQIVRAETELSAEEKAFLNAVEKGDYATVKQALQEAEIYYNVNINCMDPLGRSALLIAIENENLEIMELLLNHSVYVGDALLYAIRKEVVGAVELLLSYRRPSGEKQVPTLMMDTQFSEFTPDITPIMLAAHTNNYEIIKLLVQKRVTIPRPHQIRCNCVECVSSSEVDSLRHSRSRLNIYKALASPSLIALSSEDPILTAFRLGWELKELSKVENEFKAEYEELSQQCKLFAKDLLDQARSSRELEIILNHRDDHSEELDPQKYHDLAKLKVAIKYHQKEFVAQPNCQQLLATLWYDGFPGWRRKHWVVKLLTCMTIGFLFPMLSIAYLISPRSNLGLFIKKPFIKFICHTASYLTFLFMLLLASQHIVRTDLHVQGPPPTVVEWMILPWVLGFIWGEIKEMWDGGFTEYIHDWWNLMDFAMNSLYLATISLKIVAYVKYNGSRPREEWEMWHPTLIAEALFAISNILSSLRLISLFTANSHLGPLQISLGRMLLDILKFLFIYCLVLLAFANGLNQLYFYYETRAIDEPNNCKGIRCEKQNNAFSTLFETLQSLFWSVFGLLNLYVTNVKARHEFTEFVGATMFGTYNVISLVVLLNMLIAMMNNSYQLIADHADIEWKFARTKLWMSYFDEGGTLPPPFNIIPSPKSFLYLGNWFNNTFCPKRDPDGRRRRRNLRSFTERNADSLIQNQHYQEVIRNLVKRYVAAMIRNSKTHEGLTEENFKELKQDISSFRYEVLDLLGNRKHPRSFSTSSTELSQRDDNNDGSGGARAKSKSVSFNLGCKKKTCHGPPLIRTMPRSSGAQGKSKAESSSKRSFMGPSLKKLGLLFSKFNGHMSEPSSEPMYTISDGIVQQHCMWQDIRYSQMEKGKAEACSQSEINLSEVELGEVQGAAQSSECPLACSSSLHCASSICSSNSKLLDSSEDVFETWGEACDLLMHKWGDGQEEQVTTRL
# Assay: Patch clamp experiments (whole-cell, LaCl3-activated TRPC5 current)
# Type: cell-based
# Conditions: whole-cell patch clamp in TRPC5-expressing HEK293 TREx cells; block of inward and outward currents in continued presence of LaCl3; IC50 estimated
# Source text: Patch clamp experiments permit the detection of currents through the TRPC5 channel in the cell line described above. In normal whole-cell patch clamp recordings, a glass electrode is brought into contact with a single cell and a high-resistance (gigaohm) seal is established with the cell membrane. The membrane is then ruptured to achieve the whole-cell configuration, permitting control of the voltage of the cell membrane and measurement of currents flowing across the membrane using the amplifier attached to the electrode and resulting in the replacement of cytoplasm with the pipette solution. A perfusion system permits control of the extracellular solution, including the addition of blockers and activators of the current. The current can be activated by including 1.4 μM free Ca^2+ in the pipette (intracellular) solution, and 80 μM LaCl3 in the extracellular solution.
# TRPC5 cells were induced 20-48 hours, removed from growth plates, and replated at low density (to attain good single-cell physical separation) on glass coverslips for measurement. In some cases, cells were grown in low density overnight on glass coverslips. Patch clamp recordings were made in the whole-cell mode with a holding potential of −40 mV. Every 5 seconds, a voltage ramp was applied from −120 to +100 mV, 400 ms in duration. Currents elicited were quantified at −80 mV and +80 mV. The internal solution consisted of 140 mM cesium aspartate, 10 mM HEDTA, 2 mM CaCl2, 2.27 mM MgCl2 and 10 mM HEPES, pH 7.2, with 1,400 nM calculated free Ca^2+. The external solution consisted of 150 mM NaCl, 4.5 mM KCl, 1 mM MgCl2, 2 mM CaCl2, 10 mM HEPES, 10 mM glucose, 1 mM EGTA, pH 7.4. Upon addition of LaCl3, TRPC5 current was induced only in TRPC5-expressing cells and not in parental HEK293 TREx cells. Removal of the LaCl3 stimulus causes most of the current to go away. Potential blockers were tested for ability to block both inward and outward currents in the continued presence of LaCl3.
# IC50 of a compound of Formula (I) was estimated by testing the compound at 5 μM and 500 nM. […] IC50 for a compound of Formula (I) between 500 nM and 5 μM was similarly estimated.
row,IC50 [µM],SMILES
1,0.0517,"Cn1c(=O)n(CCCO)c(=O)c2c(C(O)c3ccc(Cl)cc3)c(-c3cccc(OC(F)(F)F)c3)cnc21 (stereo not drawn) [Compound 39, 5-((4-chlorophenyl)(hydroxyl)methyl)-3-(3-hydroxypropyl)-1-methyl-6-(3-(trifluoromethoxy)phenyl)pyrido[2,3-d]pyrimidine-2,4(1H,3H)-dione]"
2,0.029,"Cc1cncc(Oc2cnc3c(c2Cc2ccc(Cl)cc2)c(=O)n(CCCO)c(=O)n3C)c1 [Compound 27, 5-(4-chlorobenzyl)-3-(3-hydroxypropyl)-1-methyl-6-(5-methylpyridin-3-yloxy)pyrido[2,3-d]pyrimidine-2,4(1H,3H)-dione]"
3,0.0029,"Cn1c(=O)n(CCCO)c(=O)c2c(Cc3ccc(Cl)cc3)c(-c3cccc(OC(F)(F)F)c3)cnc21 [Compound 40, 5-(4-chlorobenzyl)-3-(3-hydroxypropyl)-1-methyl-6-(3-(trifluoromethoxy)phenyl)pyrido[2,3-d]pyrimidine-2,4(1H,3H)-dione]"
